In the supplement of paper PMC10307832:

Key:
Experiment in all cases: relative viability (nuclei count vs DMSO), 5 days (fraction); higher = more cells survive
NCI-H2347 = test system: NCI-H2347
Summary of the method: (§1)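 Lung cancer cell lines, seeded in 1536-well plates, were treated the following day by pin tool with a single drug or with five library-drug doses (not always all listed) in √10 steps on top of a fixed anchor-drug dose. Cells were fixed and nuclei stained in one step after 5 days, and nuclei were counted. Relative viability is the nuclei count for treated wells divided by that for vehicle wells, reported as medians of duplicate plates.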

LOU-NH91 = test system: LOU-NH91
Summary of the method: as §1

HCC-15 = test system: HCC-15
Summary of the method: as §1

RERF-LC-KJ = test system: RERF-LC-KJ
Summary of the method: as §1

LXF-289 = test system: LXF-289
Summary of the method: as §1

SW 1573 = test system: SW 1573
Summary of the method: as §1

NCI-H460 = test system: NCI-H460
Summary of the method: as §1

A-427 = test system: A-427
Summary of the method: as §1

NCI-H1792 = test system: NCI-H1792
Summary of the method: as §1

NCI-H1915 = test system: NCI-H1915
Summary of the method: as §1

SK-LU-1 = test system: SK-LU-1
Summary of the method: as §1

PC-3 [JPC-3] = test system: PC-3 [JPC-3]
Summary of the method: as §1

NCI-H1755 = test system: NCI-H1755
Summary of the method: as §1

NCI-H1734 = test system: NCI-H1734
Summary of the method: as §1

NCI-H2228 = test system: NCI-H2228
Summary of the method: as §1

NCI-H358 = test system: NCI-H358
Summary of the method: as §1

HOP-62 = test system: HOP-62
Summary of the method: as §1

NCI-H1975 = test system: NCI-H1975
Summary of the method: as §1

NCI-H647 = test system: NCI-H647
Summary of the method: as §1

HCC-78 = test system: HCC-78
Summary of the method: as §1

LC-2-ad = test system: LC-2-ad
Summary of the method: as §1

NCI-H2126 = test system: NCI-H2126
Summary of the method: as §1

Oc1nc(-c2ccc(C(F)(F)F)cc2)nc2c1CSCC2 [XAV939] + CS(=O)(=O)CCNCc1ccc(-c2ccc3ncnc(Nc4ccc(OCc5cccc(F)c5)c(Cl)c4)c3c2)o1 [Lapatinib] (partner 2 µM) showed a relative viability (NCI-H2347; first compound 0.08 µM) of 0.944, a relative viability (NCI-H2347; first compound 0.253 µM) of 0.708 and a relative viability (NCI-H2347; first compound 0.8 µM) of 0.805. It also gave a relative viability (NCI-H2347; first compound 2.53 µM) of 0.672, a relative viability (LOU-NH91; first compound 0.08 µM) of 0.73 and a relative viability (LOU-NH91; first compound 0.253 µM) of 0.695. For the same compound, the relative viability (LOU-NH91; first compound 0.8 µM) was 0.696, the relative viability (LOU-NH91; first compound 2.53 µM) was 0.628 and the relative viability (HCC-15; first compound 0.08 µM) was 1.02. For the same compound, the relative viability (HCC-15; first compound 0.253 µM) was 0.774, the relative viability (HCC-15; first compound 0.8 µM) was 0.829 and the relative viability (HCC-15; first compound 2.53 µM) was 0.806. The relative viability (RERF-LC-KJ; first compound 0.08 µM) was 0.833, the relative viability (RERF-LC-KJ; first compound 0.253 µM) was 0.702 and the relative viability (RERF-LC-KJ; first compound 0.8 µM) was 0.672. It also gave a relative viability (RERF-LC-KJ; first compound 2.53 µM) of 0.609, a relative viability (LXF-289; first compound 0.08 µM) of 0.898 and a relative viability (LXF-289; first compound 0.253 µM) of 0.826. The relative viability (LXF-289; first compound 0.8 µM) was 0.897, the relative viability (LXF-289; first compound 2.53 µM) was 0.919 and the relative viability (SW 1573; first compound 0.08 µM) was 1.11. It also gave a relative viability (SW 1573; first compound 0.253 µM) of 0.908, a relative viability (SW 1573; first compound 0.8 µM) of 1.07 and a relative viability (SW 1573; first compound 2.53 µM) of 0.983. It also gave a relative viability (NCI-H460; first compound 0.08 µM) of 1.38, a relative viability (NCI-H460; first compound 0.253 µM) of 0.723 and a relative viability (NCI-H460; first compound 0.8 µM) of 0.91. The relative viability (NCI-H460; first compound 2.53 µM) was 0.937, the relative viability (A-427; first compound 0.08 µM) was 1.09 and the relative viability (A-427; first compound 0.253 µM) was 1.02. It also gave a relative viability (A-427; first compound 0.8 µM) of 1.11, a relative viability (A-427; first compound 2.53 µM) of 1.03 and a relative viability (NCI-H1792; first compound 0.08 µM) of 1.14. The relative viability (NCI-H1792; first compound 0.253 µM) was 0.523, the relative viability (NCI-H1792; first compound 0.8 µM) was 0.805 and the relative viability (NCI-H1792; first compound 2.53 µM) was 0.806. For the same compound, the relative viability (NCI-H1915; first compound 0.08 µM) was 1.13, the relative viability (NCI-H1915; first compound 0.253 µM) was 0.934 and the relative viability (NCI-H1915; first compound 0.8 µM) was 1.05. It also gave a relative viability (NCI-H1915; first compound 2.53 µM) of 0.993, a relative viability (SK-LU-1; first compound 0.08 µM) of 0.858 and a relative viability (SK-LU-1; first compound 0.253 µM) of 0.845. The relative viability (SK-LU-1; first compound 0.8 µM) was 0.863, the relative viability (SK-LU-1; first compound 2.53 µM) was 0.906 and the relative viability (PC-3 [JPC-3]; first compound 0.08 µM) was 0.454. The relative viability (PC-3 [JPC-3]; first compound 0.253 µM) was 0.417, the relative viability (PC-3 [JPC-3]; first compound 0.8 µM) was 0.435 and the relative viability (PC-3 [JPC-3]; first compound 2.53 µM) was 0.443. For the same compound, the relative viability (NCI-H1755; first compound 0.08 µM) was 0.92, the relative viability (NCI-H1755; first compound 0.253 µM) was 0.87 and the relative viability (NCI-H1755; first compound 0.8 µM) was 0.896. The relative viability (NCI-H1755; first compound 2.53 µM) was 0.955, the relative viability (NCI-H1734; first compound 0.08 µM) was 1.34 and the relative viability (NCI-H1734; first compound 0.253 µM) was 0.9. The relative viability (NCI-H1734; first compound 0.8 µM) was 0.814, the relative viability (NCI-H1734; first compound 2.53 µM) was 0.986 and the relative viability (NCI-H2228; first compound 0.08 µM) was 1.03. The relative viability (NCI-H2228; first compound 0.253 µM) was 0.922, the relative viability (NCI-H2228; first compound 0.8 µM) was 0.848 and the relative viability (NCI-H2228; first compound 2.53 µM) was 0.928. The relative viability (NCI-H358; first compound 0.08 µM) was 0.502, the relative viability (NCI-H358; first compound 0.253 µM) was 0.469 and the relative viability (NCI-H358; first compound 0.8 µM) was 0.494. The relative viability (NCI-H358; first compound 2.53 µM) was 0.434, the relative viability (HOP-62; first compound 0.08 µM) was 1.1 and the relative viability (HOP-62; first compound 0.253 µM) was 0.963. For the same compound, the relative viability (HOP-62; first compound 0.8 µM) was 0.918, the relative viability (HOP-62; first compound 2.53 µM) was 0.735 and the relative viability (NCI-H1975; first compound 0.08 µM) was 0.733. For the same compound, the relative viability (NCI-H1975; first compound 0.253 µM) was 0.655, the relative viability (NCI-H1975; first compound 0.8 µM) was 0.753 and the relative viability (NCI-H1975; first compound 2.53 µM) was 0.646. It also gave a relative viability (NCI-H647; first compound 0.08 µM) of 0.91, a relative viability (NCI-H647; first compound 0.253 µM) of 0.854 and a relative viability (NCI-H647; first compound 0.8 µM) of 0.987. The relative viability (NCI-H647; first compound 2.53 µM) was 0.921, the relative viability (HCC-78; first compound 0.08 µM) was 0.868 and the relative viability (HCC-78; first compound 0.253 µM) was 0.508. The relative viability (HCC-78; first compound 0.8 µM) was 0.326, the relative viability (HCC-78; first compound 2.53 µM) was 0.457 and the relative viability (LC-2-ad; first compound 0.08 µM) was 0.886. For the same compound, the relative viability (LC-2-ad; first compound 0.253 µM) was 0.749, the relative viability (LC-2-ad; first compound 0.8 µM) was 0.954 and the relative viability (LC-2-ad; first compound 2.53 µM) was 0.862. The relative viability (NCI-H2126; first compound 0.08 µM) was 0.739, the relative viability (NCI-H2126; first compound 0.253 µM) was 0.583 and the relative viability (NCI-H2126; first compound 0.8 µM) was 0.667. The relative viability (NCI-H2126; first compound 2.53 µM) was 0.585.
